This assay concerns the target T1, rh integrin α4β7 (Homo sapiens, UniProt P13612+P26010).
T1 construct: purchased R&D Systems 5397-A30
T1 sequence (P13612 34-977 limits assumed): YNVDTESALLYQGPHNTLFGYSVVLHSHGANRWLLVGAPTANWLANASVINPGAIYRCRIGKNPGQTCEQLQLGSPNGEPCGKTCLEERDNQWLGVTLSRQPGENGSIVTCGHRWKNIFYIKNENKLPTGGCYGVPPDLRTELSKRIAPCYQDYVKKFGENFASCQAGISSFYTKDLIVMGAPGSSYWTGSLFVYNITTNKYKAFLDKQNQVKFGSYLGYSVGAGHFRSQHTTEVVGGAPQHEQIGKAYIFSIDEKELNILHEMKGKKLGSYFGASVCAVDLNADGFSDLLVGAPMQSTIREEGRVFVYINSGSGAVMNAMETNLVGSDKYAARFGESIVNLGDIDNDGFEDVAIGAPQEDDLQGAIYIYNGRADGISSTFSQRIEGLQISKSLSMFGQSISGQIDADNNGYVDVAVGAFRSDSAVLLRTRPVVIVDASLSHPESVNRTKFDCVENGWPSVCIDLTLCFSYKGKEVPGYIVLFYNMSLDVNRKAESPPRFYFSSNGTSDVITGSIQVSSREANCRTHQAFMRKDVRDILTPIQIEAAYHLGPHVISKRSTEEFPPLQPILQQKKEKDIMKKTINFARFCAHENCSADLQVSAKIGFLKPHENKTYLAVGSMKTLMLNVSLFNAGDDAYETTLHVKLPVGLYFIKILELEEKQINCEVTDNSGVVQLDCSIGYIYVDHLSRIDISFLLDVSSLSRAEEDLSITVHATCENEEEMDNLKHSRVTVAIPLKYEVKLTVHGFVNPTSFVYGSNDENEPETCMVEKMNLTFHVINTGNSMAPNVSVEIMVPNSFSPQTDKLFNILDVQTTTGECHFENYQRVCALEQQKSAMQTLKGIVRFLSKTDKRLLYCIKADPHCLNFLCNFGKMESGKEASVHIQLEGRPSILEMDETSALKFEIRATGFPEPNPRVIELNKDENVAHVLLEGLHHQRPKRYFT
T1 sequence (P26010 20-723 limits assumed): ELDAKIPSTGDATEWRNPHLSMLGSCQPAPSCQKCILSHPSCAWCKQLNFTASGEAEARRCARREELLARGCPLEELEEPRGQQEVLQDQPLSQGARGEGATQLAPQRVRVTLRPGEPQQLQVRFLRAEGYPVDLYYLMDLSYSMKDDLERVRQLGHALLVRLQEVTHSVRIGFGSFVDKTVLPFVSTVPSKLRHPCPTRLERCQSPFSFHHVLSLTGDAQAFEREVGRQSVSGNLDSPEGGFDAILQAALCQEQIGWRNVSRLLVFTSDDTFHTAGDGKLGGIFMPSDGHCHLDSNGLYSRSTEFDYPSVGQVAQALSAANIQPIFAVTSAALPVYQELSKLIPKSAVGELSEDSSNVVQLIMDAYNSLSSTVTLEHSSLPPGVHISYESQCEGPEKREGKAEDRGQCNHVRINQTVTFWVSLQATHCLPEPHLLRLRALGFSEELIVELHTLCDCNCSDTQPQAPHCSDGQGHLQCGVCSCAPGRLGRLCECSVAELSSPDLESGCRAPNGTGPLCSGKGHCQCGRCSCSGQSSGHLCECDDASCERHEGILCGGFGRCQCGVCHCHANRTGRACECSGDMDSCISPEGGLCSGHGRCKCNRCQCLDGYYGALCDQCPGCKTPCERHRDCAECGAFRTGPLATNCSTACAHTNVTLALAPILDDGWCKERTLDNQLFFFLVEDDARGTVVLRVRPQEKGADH
Briefly: α4β7-MAdCAM Competition ELISA. The format is binding. The note with it: thioether monomer peptides, Table 6; read-out: ELISA A4B7. An outline of the steps: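 Recombinant human α4β7 captured on nickel-coated plates, then incubated 1 h at room temperature with serially diluted peptides (final top 10 μM) and 10 nM final MAdCAM-1 in Tris pH 7.6 buffer with 1 mM MnCl2 or MgCl2. Bound MAdCAM-1 detected with anti-human IgG1-HRP and TMB, absorbance at 450 nm.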
A general note: In an ELISA, binding on a coated surface is turned into a signal by an enzyme label.

The structures appear in SMILES notation. Where a SMILES comes first, the peptide text is derived from it.

The values that follow come from patent US20260217767A1, “NOVEL A4B7 THIOETHER PEPTIDE DIMER ANTAGONISTS” (Protagonist Therapeutics, Inc., priority 2014, published 2026).

On to `CC(C)C[C@@H]1NC(=O)[C@H]([C@@H](C)O)NC(=O)[C@H](CC(=O)O)NC(=O)[C@H](CO)NC(=O)[C@H](CCCNC(=N)N)N(C)C(=O)c2ccccc2CSC(C)(C)[C@@H](C(=O)N[C@@H](Cc2c[nH]c3ccccc23)C(=O)N[C@H](CCC(=O)O)C(=O)N[C@@H](CO)C(N)=O)NC1=O` [compound 100] (HELM PEPTIDE1{[meR].S.D.T.L.[Pen].W.[dE].S.[am]}|CHEM1{[O=C(c1ccccc1C[*:2])[*:1]]}$PEPTIDE1,CHEM1,1:R1-1:R1|PEPTIDE1,CHEM1,6:R3-1:R2$$$V2.0), for which the IC50 was less than 25 nM.
Regarding `CC(C)C[C@@H]1NC(=O)[C@H]([C@@H](C)O)NC(=O)[C@H](CC(=O)O)NC(=O)[C@H](CO)NC(=O)[C@H](CCCNC(=N)N)N(C)C(=O)c2ccccc2CSC(C)(C)[C@@H](C(=O)N[C@@H](Cc2c[nH]c3ccccc23)C(=O)N[C@H](CCC(=O)O)C(=O)N[C@@H](Cc2ccccc2)C(N)=O)NC1=O` [compound 101] (HELM PEPTIDE1{[meR].S.D.T.L.[Pen].W.[dE].F.[am]}|CHEM1{[O=C(c1ccccc1C[*:2])[*:1]]}$PEPTIDE1,CHEM1,1:R1-1:R1|PEPTIDE1,CHEM1,6:R3-1:R2$$$V2.0), the IC50 is less than 25 nM.
Next, `CC(C)C[C@@H]1NC(=O)[C@H]([C@@H](C)O)NC(=O)[C@H](CC(=O)O)NC(=O)[C@H](CO)NC(=O)[C@H](CCCNC(=N)N)N(C)C(=O)c2ccccc2CSC(C)(C)[C@@H](C(=O)N[C@@H](Cc2c[nH]c3ccccc23)C(=O)N[C@H](CCC(=O)O)C(=O)N[C@@H](Cc2c[nH]cn2)C(N)=O)NC1=O` [compound 102] (HELM PEPTIDE1{[meR].S.D.T.L.[Pen].W.[dE].H.[am]}|CHEM1{[O=C(c1ccccc1C[*:2])[*:1]]}$PEPTIDE1,CHEM1,1:R1-1:R1|PEPTIDE1,CHEM1,6:R3-1:R2$$$V2.0): less than 25 nM; `CC(C)C[C@@H]1NC(=O)[C@H]([C@@H](C)O)NC(=O)[C@H](CC(=O)O)NC(=O)[C@H](CO)NC(=O)[C@H](CCCNC(=N)N)N(C)C(=O)c2ccccc2CSC(C)(C)[C@@H](C(=O)N[C@@H](Cc2c[nH]c3ccccc23)C(=O)N[C@H](CCC(=O)O)C(=O)N[C@@H](Cc2ccc(O)cc2)C(N)=O)NC1=O` [compound 104] (HELM PEPTIDE1{[meR].S.D.T.L.[Pen].W.[dE].Y.[am]}|CHEM1{[O=C(c1ccccc1C[*:2])[*:1]]}$PEPTIDE1,CHEM1,1:R1-1:R1|PEPTIDE1,CHEM1,6:R3-1:R2$$$V2.0): less than 25 nM.
Consider `CC(C)C[C@@H]1NC(=O)[C@H]([C@@H](C)O)NC(=O)[C@H](CC(=O)O)NC(=O)[C@H](CO)NC(=O)[C@H](CCCNC(=N)N)N(C)C(=O)c2ccccc2CSC(C)(C)[C@@H](C(=O)N[C@@H](Cc2c[nH]c3ccccc23)C(=O)N[C@H](CCC(=O)O)C(=O)N[C@H](CO)C(N)=O)NC1=O` [compound 106] (HELM PEPTIDE1{[meR].S.D.T.L.[Pen].W.[dE].[dS].[am]}|CHEM1{[O=C(c1ccccc1C[*:2])[*:1]]}$PEPTIDE1,CHEM1,1:R1-1:R1|PEPTIDE1,CHEM1,6:R3-1:R2$$$V2.0), for which the IC50 is less than 25 nM.
Turning to `CC(C)C[C@@H]1NC(=O)[C@H]([C@@H](C)O)NC(=O)[C@H](CC(=O)O)NC(=O)[C@H](CO)NC(=O)[C@H](CCCNC(=N)N)N(C)C(=O)c2ccccc2CSC(C)(C)[C@@H](C(=O)N[C@@H](Cc2c[nH]c3ccccc23)C(=O)N[C@H](CCC(=O)O)C(=O)N[C@H](Cc2ccccc2)C(N)=O)NC1=O` [compound 107] (HELM PEPTIDE1{[meR].S.D.T.L.[Pen].W.[dE].[dF].[am]}|CHEM1{[O=C(c1ccccc1C[*:2])[*:1]]}$PEPTIDE1,CHEM1,1:R1-1:R1|PEPTIDE1,CHEM1,6:R3-1:R2$$$V2.0), the IC50 is less than 25 nM.
